The results in this text go back to PMC7822816, “Halo-fluorescein for photodynamic bacteria inactivation in extremely acidic conditions” (Nature Communications, 2021).

The test system of series [1] is L. plantarum. Kind of series: IC50 of photodynamic inactivation, L. plantarum. The settings on record: Lactiplantibacillus plantarum, 10 min, pH 2.5, read-out: IC50 (L. plantarum).
Experimental: (§1) For quantitative comparison, the half-maximal inhibitory concentrations (IC50) of TIF for these bacterial were measured (Supplementary Table 6, and Supplementary Figs. 51–58).
(§2) S. aureus and MRSA, and C. albicans were provided by West China Hospital of Stomatology, Sichuan University. A. acidoterrestris, S. enterica, H. pylori, L. plantarum, and E. coli were provided by College of Life Science, Sichuan University. The bacteria were cultured overnight in a constant temperature oscillator (37 °C, 170 r/min, the specific culture conditions were listed in Supplementary Table 6). Suspensions of bacteria (100 μL, diluted 1000-folds, PBS) were added with different concentration PSs (final volume of 1 mL), and irradiated with LED (λ = 520 nm, 35 mW/cm^2) for 10 min. Then, the treated bacteria liquid (100 μL) were added into the culture medium and cultured in a 24-well plate. The OD600 of bacteria was measured to obtain the bacteria CFUs, and the survival rate were calculated as C/C0 × 100%, where C is the CFU of sample which treated with PSs and light, and C0 is the blank without any treatment. All photodynamic sterilizations were carried out in at least three replicates.
Series [2] concerns C. albicans. As to the kind of experiment: IC50 of photodynamic inactivation, C. albicans. Conditions: Candida albicans, 10 min, pH 3, read-out: IC50 (C. albicans).
Experimental: as §1
(§3) Bacterial strains are listed in Supplementary Table 6. S. aureus and MRSA, and C. albicans were provided by West China Hospital of Stomatology, Sichuan University. A. acidoterrestris, S. enterica, H. pylori, L. plantarum, and E. coli were provided by College of Life Science, Sichuan University. The bacteria were cultured overnight in a constant temperature oscillator (37 °C, 170 r/min, the specific culture conditions were listed in Supplementary Table 6). Suspensions of bacteria (100 μL, diluted 1000-folds, PBS) were added with different concentration PSs (final volume of 1 mL), and irradiated with LED (λ = 520 nm, 35 mW/cm^2) for 10 min. Then, the treated bacteria liquid (100 μL) were added into the culture medium and cultured in a 24-well plate. The OD600 of bacteria was measured to obtain the bacteria CFUs, and the survival rate were calculated as C/C0 × 100%, where C is the CFU of sample which treated with PSs and light, and C0 is the blank without any treatment. All photodynamic sterilizations were carried out in at least three replicates.
(§4) Irradiation: 520 nm green LED (6 mW/cm2), 10 min. Error bars = Standard Deviation (n=3).
(§5) Irradiation: 520 nm green LED (6 mW/cm2), 10 min.
Series [3] has as its system L. plantarum. As to the kind of experiment: Photodynamic inhibition of L. plantarum (coating plate method). The series is classed as cell-based, Lactobacillus plantarum.
In series [4] the test system is S. aureus. Kind of series: IC50 of photodynamic inactivation, S. aureus. Conditions: Staphylococcus aureus, 10 min, pH 2.5, read-out: IC50 (S. aureus).
Experimental: as §1, §2
The test system of series [5] is broad band of aciduric bacteria. As to the kind of experiment: Photodynamic inactivation, summary over aciduric bacteria. Conditions: read-out: IC50 (broad band of aciduric bacteria).
Experimental: as §1
(§6) The bacteria were cultured overnight in a constant temperature oscillator (37 °C, 170 r/min, the specific culture conditions were listed in Supplementary Table 6). Suspensions of bacteria (100 μL, diluted 1000-folds, PBS) were added with different concentration PSs (final volume of 1 mL), and irradiated with LED (λ = 520 nm, 35 mW/cm^2) for 10 min. Then, the treated bacteria liquid (100 μL) were added into the culture medium and cultured in a 24-well plate. The OD600 of bacteria was measured to obtain the bacteria CFUs, and the survival rate were calculated as C/C0 × 100%, where C is the CFU of sample which treated with PSs and light, and C0 is the blank without any treatment. All photodynamic sterilizations were carried out in at least three replicates.
Series [6] relates to H. pylori. Kind of series: IC50 of photodynamic inactivation, H. pylori. Conditions: Helicobacter pylori, 10 min, pH 2.5, read-out: IC50 (H. pylori).
Experimental: as §1, §3, §4, §5
Series [7] is classed as physicochemical. The settings on record: buffer, 5 min, pH 3. The method, then: Next, the influence of the added TIF to jucies after photodynamic sterilization was further investigated from the following two aspects. First, like many other dyes, TIF experienced photo-bleaching upon photo irradiation. As shown in Supplementary Fig. 69, in the presence of green LED irradiation (520 nm, 50 mW/cm^2), the absorbance of TIF decreased rapidly in 5 min (with ~22% remaining). In other words, most of the added TIF in juices is expected to lose the ability of ROS generation after the first photodynamic sterilization process. Second, the ingredients inside the juices before and after TIF-involved photodynamic sterilization were evaluated. Here, the investigations were concentrated on antioxidants due to the high activity of ROS[42]. Three representative antioxidants, namely, ascorbic acid (vitamin C), phenolic compounds, and flavonoid, were chosen. […] Besides, the color, flavor, and texture of the juices were roughly evaluated through visual observation and smelling (method supplied in the Chinese National Standard GB/T 31121-2014), no appreciable changes were observed before and after TIF-based photodynamic sterilization. […]
(1) The photo-bleaching of TIF. […] As can be seen from Figure R3 below, in the presence of green LED irradiation (520 nm, 50 mW/cm2), the absorbance of TIF decreased rapidly in 5 min (with ~22% remaining). […]

Series [8] relates to E. coli. Kind of series: IC50 / growth inhibition of photodynamic inactivation, E. coli.
Experimental: as §6
Growth inhibition of E. coli by different concentrations of TIF.
Irradiation: 520 nm green LED (6 mW/cm2), 10 min. Error bars = Standard Deviation (n=6).
Growth inhibition of Salmonella by different concentrations of
TIF. Irradiation: 520 nm green LED (6 mW/cm2), 10 min.
Series [9] relates to C. albicans. Kind of series: Fresh food preservation (infected tomato model). The arrangement: species or system Candida albicans. An excerpt:
Besides fruit juices, the potential of TIF for photo-assisted fresh food preservation was also investigated with tomato as the model (pH 3.0). […] Therefore, the food additive TIF is also promising for fresh food preservation.
Tomatoes were selected as the model for photo-assisted fresh food preservation. All the tomatoes were divided into six groups, and made a wound of ~7 cm^2 by hot water. […] Afterward, the tomatoes were stored at room temperature and then subjected to repeated irradiation at day 2. The total viable counts of bacteria on the infected tomatoes were measured in day 3.

Series [10] is described as follows: pH titration of halogenated fluorescein (pH0.5). The series is classed as physicochemical. The method, then: The pH0.5 values (the pH value when the open form reduce to the half of the maximum) of various fluorescein derivatives were determined experimentally through pH titration (Supplementary Figs. 6–16).
The pH of the solutions were adjusted through varying the ratios of citric acid and Na2HPO4 (pH 2.2–8.0), and further acidity was adjusted with concentrated HCl or 1 M NaOH. The absorption and fluorescence spectra of the resultant solutions were then collected.
Section S5. pH-dependent Properties of the Halogenated Fluoresceins.
S5.1 pH titration of halogenated fluorescein
Fluorescein derivatives (Supplementary Table 1) were dissolved in DMSO to obtain 1 mM stock solutions and then diluted with citric acid-Na2HPO4 buffer (100 mM) to 10
μM. The pH of the solutions were adjusted through varying the ratios of citric acid and Na2HPO4 (pH 2.2-8.0), and further acidity was adjusted with concentrated HCl or 1 M
NaOH. The absorption and fluorescence spectra of the resultant solutions were then

The IC50 is the concentration needed to halve the response being measured. Consider `O=C(O)c1ccccc1-c1c2cc(I)c(=O)c(I)c-2oc2c(I)c(O)c(I)cc12` [TIF, 2′,4′,5′,7′-tetraiodofluorescein], for which the IC50 in series [1] is 0.01 µM; in [2], 1.04 µM; in series [4] it was 0.37 µM; in series [5], less than 1.1 µM; in series [6], 0.18 µM; in series [8] (Escherichia coli, 10 min, pH 2.5, read-out: IC50 (E. coli)) it was 0.21 µM. In addition, the “antimicrobial activity at different pH” value in [3] (0.5 μM, light, pH range 2.5–7.0) is listed as “considerable antimicrobial activity”. The “dark toxicity (bacteria growth)” value in series [3] (no light, concentration up to 50 μM) was “no significant inhibition of bacteria growth”. The “live/dead bacterial staining (SYTO 9/propidium iodide)” value in series [3] (pH 2.5, 10 μM, irradiation 1 h) was “bright red fluorescence”. In addition, the “membrane integrity (SEM, TEM)” value in [3] (pH 2.5, 10 μM, irradiation 1 h) was “obvious deformation and distortion parts”. The “absorbance remaining after photo-bleaching” value in series [7] is given as ~ 22%. The Inhibition ratio in series [8] (E.coli, dose 0.5 μM, 3 V/3 W, 6 mW/cm2, 10 min) is reported as greater than 99.3%. The “wound infection of tomatoes, without light” value in series [9] (10 μM in pH 3.0 PBS, TIF only) is reported as “different magnitudes of wound infection”. Besides, the “colony counting of infected tomatoes” value in [9] (day 3, 10 μM, pH 3.0, 520 nm LED) is on record as “excellent antimicrobial ability”. The compound also yielded a pH0.5 in series [10] (2% DMSO citric acid-disodium hydrogen phosphate buffer (Supplementary Table 4)) of 4.07. Further, the “lowering of pH0.5 compared with fluorescein” value in series [10] (difference to fluorescein (6.09)) was found to be 2.02 units.
